From patent publication US20230044633A1, “OPTICAL BASED METHODS FOR DETERMINING ANTIMICROBIAL DOSING REGIMENS” (University of Houston System, priority 2019, published 2023)
Converted amounts (≈) assume the structure as drawn.

Assays:
[1] = test system: A. baumannii 1261 (clinical isolate); assay: Clinical isolate exposed to antibiotic concentration combinations in 4×4 array, tracked over 24 h on 216Dx; assay type: cell-based, Acinetobacter baumannii; details: clinical isolate of A. baumannii (multidrug resistant)
Protocol: FIG. 3. A. baumannii 1261 was exposed to 16 different concentration combinations of levofloxacin (L) and amikacin (A). Each sequence of points represents the time course of the bacterial population (baseline inoculum approximately 2-5×10^5 CFU/ml) exposed to one levofloxacin/amikacin concentration combination (e.g., levofloxacin 20 mg/l+amikacin 30 mg/ is shown in hollow squares). Bacteria exposed to drugs with no activity produce profiles that superimpose on those from placebo controls; antimicrobial activity manifests as a delay or absence of growth.
Ineffective antibiotics may have acceptable activity when combined. A clinical isolate of A. baumannii was exposed to different antibiotic concentration combinations in a 4×4 array, and the bacterial burden was tracked over 24 h using the prototype technical platform 216Dx. While the isolate is resistant to levofloxacin, amikacin and cefepime (multidrug resistant), bacterial growth was delayed in selected combinations (FIG. 3) and the profiles were reasonably captured by the mathematical modeling framework (1) shown above (FIG. 1, right).

[2] = test system: Acinetobacter baumannii (AB), ATCC BAA747; assay: Susceptibility (MIC); assay type: cell-based; details: ATCCBAA747, wild type AB ATCC BAA747, previously found
Protocol: Microorganism. A laboratory reference wild type Acinetobacter baumannii (AB), ATCC BAA747, was utilized in the study. The bacteria were stored at −70° C. in Protect® vials. Before the experiment, the bacteria were subcultured at least twice on 5% blood agar plates for 24 hours at 35° C. and fresh colonies were used.

SMILES	susceptibility phenotype of the isolate [1]	MIC [2]
NCC[C@H](O)C(=O)N[C@@H]1C[C@H](N)[C@@H](O[C@H]2O[C@H](CN)[C@@H](O)[C@H](O)[C@H]2O)[C@H](O)[C@H]1O[C@H]1O[C@H](CO)[C@@H](O)[C@H](N)[C@H]1O [amikacin]	resistant	–
CO/N=C(\C(=O)N[C@@H]1C(=O)N2C(C(=O)[O-])=C(C[N+]3(C)CCCC3)CS[C@H]12)c1csc(N)n1 [cefepime]	resistant	–
C[C@H]1COc2c(N3CCN(C)CC3)c(F)cc3c(=O)c(C(=O)O)cn1c23 [LVX, Levofloxacin]	–	0.25 mg/L (≈ 0.692 µM)
